Measurements reported in patent EP4667483A1, “HUMAN TRANSFERRIN RECEPTOR-BINDING PEPTIDE” (JCR Pharmaceuticals Co., Ltd., priority 2023, dated 2024).
pKd: −log10 of the molar value. Like-named read-outs stand apart in the source and are kept apart here. Numbered stars: 1 amine (or outer) side, 2 acyl side, 3 side chain; on linkers, the order of the positions; unused ones are H or OH. Bridge positions count the residues as written; N and C are the ends. Square brackets hold non-standard residues; d marks the D form. Peptide text beside a SMILES is read from it. * marks the point of attachment. CH2CO(D-glucamine) = O=C(C*)NC[C@H](O)[C@@H](O)[C@H](O)[C@H](O)CO; NH(1-deoxy-D-glucityl) = OC[C@@H](O)[C@@H](O)[C@H](O)[C@@H](O)CN*; Trp(1-CH2COOH) = N[C@@H](Cc1cn(CC(=O)O)c2ccccc12)C(=O)O; NMePhe(3-Cl) = CN[C@@H](Cc1cccc(Cl)c1)C(=O)O; NMeW = CN[C@@H](Cc1c[nH]c2ccccc12)C(=O)O; X6 = Cc1cc(C[C@H](N[*:1])C(=O)[*:2])ccn1; NMeY = CN[C@@H](Cc1ccc(O)cc1)C(=O)O; Nva(3-Et) = CCC(CC)[C@H](N)C(=O)O; PEG4 = NCCOCCOCCOCCOCCC(=O)O; Carboxymethyl = O=C(O)C*

Target: human transferrin receptor (hTfR) (Homo sapiens, UniProt P02786)
Sequence (P02786 whole entry): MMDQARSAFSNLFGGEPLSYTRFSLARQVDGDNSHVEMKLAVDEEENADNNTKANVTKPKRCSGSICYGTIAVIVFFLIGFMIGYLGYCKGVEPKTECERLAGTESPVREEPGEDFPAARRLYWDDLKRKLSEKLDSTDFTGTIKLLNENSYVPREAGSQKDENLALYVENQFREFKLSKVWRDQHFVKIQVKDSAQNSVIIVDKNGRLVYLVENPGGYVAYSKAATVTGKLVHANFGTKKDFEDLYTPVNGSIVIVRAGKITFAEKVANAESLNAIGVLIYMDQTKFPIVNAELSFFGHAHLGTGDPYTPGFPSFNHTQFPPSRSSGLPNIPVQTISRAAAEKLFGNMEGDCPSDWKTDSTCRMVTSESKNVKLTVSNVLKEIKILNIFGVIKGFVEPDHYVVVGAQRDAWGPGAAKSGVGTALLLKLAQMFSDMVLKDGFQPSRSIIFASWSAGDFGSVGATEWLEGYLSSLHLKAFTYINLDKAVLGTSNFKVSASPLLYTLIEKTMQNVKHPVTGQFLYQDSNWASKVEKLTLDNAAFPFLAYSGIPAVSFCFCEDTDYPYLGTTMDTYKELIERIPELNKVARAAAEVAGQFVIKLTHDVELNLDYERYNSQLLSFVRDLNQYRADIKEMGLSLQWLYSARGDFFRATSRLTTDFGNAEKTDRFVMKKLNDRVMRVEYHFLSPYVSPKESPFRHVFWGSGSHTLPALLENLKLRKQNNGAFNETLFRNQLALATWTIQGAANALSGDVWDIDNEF
Test: SPR measurement under pH 6.0 conditions (Biacore T200, NTA chip, immobilized hTfR)
Assay type: binding
Conditions: read-out: hTfR SPR pH6.0 KD
Description: Molecular interactions between the synthesized peptides and the transferrin receptor (hTfR) were evaluated by surface plasmon resonance (SPR) using the following method. The specific assay procedure is described below.
An NTA sensor chip (Cytiva) was inserted in a Biacore T200 (Cytiva), a priming operation was performed 3 times with a running buffer: HBS-P+ pH 6.0 (Cytiva), and an equilibrium state was created at a flow rate of 30 µL/min. A ligand immobilization operation was carried out at a flow rate of 10 µL/min.
The surface of the NTA sensor chip was washed with 350 mM EDTA solution, nickel ions were loaded into the carbomethyldextran chains of the sensor chip with a 500 µM aqueous nickel chloride solution, and then washing was performed with 3 mM EDTA solution. After mixing 50 µL of each of 60 mM EDC solution (Cytiva) and 650 mM NHS solution (Cytiva), the mixture was reacted for 420 seconds at a flow rate of 10 µL/min. 150 µL of 0.2 µM hTfR solution was prepared by diluting with 10 mM acetic acid solution (pH 5.0), and reacted for 420 seconds at a flow rate of 10 µL/min to immobilize hTfR on the NTA sensor chip. For the human transferrin receptor (hTfR), the recombinant hTfR described in Example 2 of WO2018/124121 was used. After immobilization, capping was performed by reacting with 1.0 M ethanolamine aqueous solution (Cytiva) at a flow rate of 10 µL/min for 420 seconds. Peptide lysate prepared in DMSO to 10 mM was diluted with the running buffer to a final concentration of 10 µM peptide lysate, and then peptide solutions of 250 nM, 125 nM, 62.5 nM, 25 nM, and 12.5 nM were prepared. The kinetics of the peptide against hTfR was obtained by SPR measurement using the above samples.
The kinetic evaluation model was single-cycle kinetics, and curve fitting was performed using Biacore T200 Evaluation Software Version 3.0 (Cytiva). The binding of the peptide to hTfR was evaluated by performing curve fitting on the obtained sensorgram by the least squares method and obtaining the kon value, the koff value, and the KD value.

[1] = SPR, pH 6.0, peptide with the linker named in the table

Compound	pKd (pH 6.0, single-cycle kinetics)	pKd [1]	pKd (SPR, pH 6.0, Table 2-1-2)
CC[C@H](C)[C@@H]1NC(=O)[C@H](Cc2ccc(OCC(=O)NC[C@H](O)[C@@H](O)[C@H](O)[C@H](O)CO)cc2)NC(=O)[C@H](Cc2ccc(O)cc2)NC(=O)[C@H](CC(N)=O)NC(=O)[C@H](Cc2c[nH]c3ccccc23)NC(=O)[C@H](C(C)C)NC(=O)[C@H](Cc2cccc(Cl)c2)N(C)C(=O)[C@H](C(C)C)NC(=O)[C@H](C)NC(=O)CSC[C@@H](C(=O)NCCOCCOCCOCCOCCC(N)=O)NC(=O)[C@H](Cc2ccc(O)cc2)N(C)C(=O)[C@H](Cc2ccccc2)NC(=O)[C@H](CCC(N)=O)NC(=O)[C@H](CCC(=O)NC[C@H](O)[C@@H](O)[C@H](O)[C@H](O)CO)NC(=O)[C@H]([C@@H](C)CC)NC1=O [compound 39] ({CH2CO}-AV[NMePhe(3-Cl)]VWNYY(CH2CO(D-glucamine))IIE(NH(1-deoxy-D-glucityl))QF[NMeY]C[PEG4]-NH2; thioether N-15)	7.91	–	–
CCC(CC)[C@@H]1NC(=O)[C@H](Cc2ccc(O)cc2)NC(=O)[C@H](Cc2ccc(O)cc2)NC(=O)[C@H](CC(N)=O)NC(=O)[C@H](Cc2c[nH]c3ccccc23)N(C)C(=O)[C@H](C(C)C)NC(=O)[C@H](Cc2ccccc2)N(C)C(=O)[C@H](C(C)C)NC(=O)[C@H](C)NC(=O)CSC[C@@H](C(=O)NCCOCCOCCOCCOCCC(N)=O)NC(=O)[C@H](Cc2ccc(O)cc2)N(C)C(=O)[C@H](Cc2ccc(O)cc2)NC(=O)[C@H](CCCNC(=N)N)NC(=O)[C@H](CCCCN)NC(=O)[C@H]([C@@H](C)CC)NC1=O [compound 117]	–	7.86	–
CC[C@H](C)[C@@H]1NC(=O)[C@H](Cc2ccc(O)cc2)NC(=O)[C@H](Cc2ccc(N)nc2)NC(=O)[C@H](CC(N)=O)NC(=O)[C@H](Cc2c[nH]c3ccccc23)NC(=O)[C@H](C(C)C)NC(=O)[C@H](Cc2ccccc2)N(C)C(=O)[C@H](C(C)C)NC(=O)[C@H](C)NC(=O)CSC[C@@H](C(=O)NCCOCCOCCOCCOCCC(N)=O)NC(=O)[C@H](Cc2ccc(O)cc2)N(C)C(=O)[C@H](Cc2ccc(O)cc2)NC(=O)[C@H](CCCNC(=N)N)NC(=O)[C@H](CCCCN)NC(=O)[C@H]([C@@H](C)CC)NC1=O [compound 123]	–	7.76	–
CCC(CC)[C@@H]1NC(=O)[C@H](Cc2ccc(NCC(=O)O)nc2)NC(=O)[C@H](Cc2ccc(O)cc2)NC(=O)[C@H](CC(N)=O)NC(=O)[C@H](Cc2cn(CC(=O)O)c3ccccc23)NC(=O)[C@H](C(C)C)NC(=O)[C@H](Cc2cccc(Cl)c2)N(C)C(=O)[C@H](C(C)C)NC(=O)[C@H](C)NC(=O)CSC[C@@H](C(=O)NCCOCCOCCOCCOCCC(N)=O)NC(=O)[C@H](Cc2ccc(O)cc2)N(C)C(=O)[C@H](Cc2cccc(C(=O)O)c2)NC(=O)[C@H](CCCNC(=N)N)NC(=O)[C@H](CCC(N)=O)NC(=O)[C@H]([C@@H](C)CC)NC1=O [compound 151]	–	–	7.32
CCC(CC)[C@@H]1NC(=O)[C@H](Cc2ccc(OCC(=O)O)cc2)NC(=O)[C@H](Cc2ccc(O)cc2)NC(=O)[C@H](CC(N)=O)NC(=O)[C@H](Cc2cn(CC(=O)O)c3ccccc23)NC(=O)[C@H](C(C)C)NC(=O)[C@H](Cc2cccc(Cl)c2)N(C)C(=O)[C@H](C(C)C)NC(=O)[C@H](C)NC(=O)CSC[C@@H](C(=O)NCCOCCOCCOCCOCCC(N)=O)NC(=O)[C@H](Cc2ccc(O)cc2)N(C)C(=O)[C@H](Cc2ccnc(C)c2)NC(=O)[C@H](CCCNC(=N)N)NC(=O)[C@H](CCC(N)=O)NC(=O)[C@H]([C@@H](C)CC)NC1=O [compound 152] ({CH2CO}-AV[NMePhe(3-Cl)]V[Trp(1-CH2COOH)]NYY(Carboxymethyl)[Nva(3-Et)]IQR[X6][NMeY]C[PEG4]-NH2; thioether N-15)	–	–	6.94
CC[C@H](C)[C@@H]1NC(=O)[C@H](Cc2ccc(OC)cc2)NC(=O)[C@H](CCCNC(=N)N)NC(=O)[C@H](CC(N)=O)NC(=O)[C@H](Cc2c[nH]c3ccccc23)N(C)C(=O)[C@H](C(C)C)NC(=O)[C@H](Cc2cccc(Cl)c2)N(C)C(=O)[C@H](C(C)C)NC(=O)[C@H](C)NC(=O)CSC[C@@H](C(=O)NCCOCCOCCOCCOCCC(N)=O)NC(=O)[C@H](Cc2ccc(O)cc2)N(C)C(=O)[C@H](Cc2ccccc2)NC(=O)[C@H](CCCNC(=N)N)NC(=O)[C@H](CCCCN)NC(=O)[C@H]([C@@H](C)CC)NC1=O [compound 173] ({CH2CO}-AV[NMePhe(3-Cl)]V[NMeW]NRY(Me)IIKRF[NMeY]C[PEG4]-NH2; thioether N-15)	7.88	–	–

Further lines, results first:

pKd (pH 6.0, single-cycle kinetics)	pKd [1]	pKd (SPR, pH 6.0, Table 2-1-2)	Compound
–	7.88	–	CCC(CC)[C@@H]1NC(=O)[C@H](Cc2ccc(O)cc2)NC(=O)[C@H](Cc2ccc(O)cc2)NC(=O)[C@H](CC(N)=O)NC(=O)[C@H](Cc2c[nH]c3ccccc23)N(C)C(=O)[C@H](C(C)C)NC(=O)[C@H](Cc2cccc(Cl)c2)N(C)C(=O)[C@H](C(C)C)NC(=O)[C@H](C)NC(=O)CSC[C@@H](C(=O)NCCOCCOCCOCCOCCC(N)=O)NC(=O)[C@H](Cc2ccc(O)cc2)N(C)C(=O)[C@H](Cc2ccc(O)cc2)NC(=O)[C@H](CCCNC(=N)N)NC(=O)[C@H](CCCCN)NC(=O)[C@H](CO)NC1=O [compound 132] ({CH2CO}-AV[NMePhe(3-Cl)]V[NMeW]NYY[Nva(3-Et)]SKRY[NMeY]C[PEG4]-NH2; thioether N-15)
–	7.82	–	CC[C@H](C)[C@@H]1NC(=O)[C@H](Cc2ccc(O)cc2)NC(=O)[C@H](Cc2ccc(O)cc2)NC(=O)[C@H](CC(N)=O)NC(=O)[C@H](Cc2c[nH]c3ccccc23)N(C)C(=O)[C@H](C(C)C)NC(=O)[C@H](Cc2cccnc2)N(C)C(=O)[C@H](C(C)C)NC(=O)[C@H](C)NC(=O)CSC[C@@H](C(=O)NCCOCCOCCOCCOCCC(N)=O)NC(=O)[C@H](Cc2ccc(O)cc2)N(C)C(=O)[C@H](Cc2ccc(O)cc2)NC(=O)[C@H](CCCNC(=N)N)NC(=O)[C@H](CCCCN)NC(=O)[C@H]([C@@H](C)CC)NC1=O [compound 135]
–	–	7.23	CCC(CC)[C@@H]1NC(=O)[C@H](Cc2ccc(OCC(=O)O)cc2)NC(=O)[C@H](Cc2ccc(NCC(=O)O)nc2)NC(=O)[C@H](CC(N)=O)NC(=O)[C@H](Cc2cn(CC(=O)O)c3ccccc23)NC(=O)[C@H](C(C)C)NC(=O)[C@H](Cc2cccc(Cl)c2)N(C)C(=O)[C@H](C(C)C)NC(=O)[C@H](C)NC(=O)CSC[C@@H](C(=O)NCCOCCOCCOCCOCCC(N)=O)NC(=O)[C@H](Cc2ccc(O)cc2)N(C)C(=O)[C@H](Cc2cccc(C(=O)O)c2)NC(=O)[C@H](CCCNC(=N)N)NC(=O)[C@H](CCC(N)=O)NC(=O)[C@H]([C@@H](C)CC)NC1=O [compound 150]
9.17	–	–	CC[C@H](C)[C@@H]1NC(=O)[C@H](Cc2ccc(OC)cc2)NC(=O)[C@H](Cc2ccc(O)cc2)NC(=O)[C@H](CC(N)=O)NC(=O)[C@H](Cc2c[nH]c3ccccc23)N(C)C(=O)[C@H](C(C)C)NC(=O)[C@H](Cc2cccc(Cl)c2)N(C)C(=O)[C@H](C(C)C)NC(=O)[C@H](C)NC(=O)CSC[C@@H](C(=O)NCCOCCOCCOCCOCCC(N)=O)NC(=O)[C@H](Cc2ccc(O)cc2)N(C)C(=O)[C@H](Cc2ccccc2)NC(=O)[C@H](CCCNC(=N)N)NC(=O)[C@H](CCC(=O)NCCCN)NC(=O)[C@H]([C@@H](C)CC)NC1=O [compound 171]
